Assays:
[1] = test system: P388 mouse leukemia cells; test: Life-span-prolonging (anti-tumor) effect on mice subcutaneously inoculated with P388 mouse leukemia cells; assay type: in vivo, mouse (CDF1 female); conditions: 0.1 mg/kg i.v. on days 1, 5 and 9; for Survival days ave. ± s. d.: all marked ** (p < 0.01); for T/C (%): survival vs vehicle
Description: i) Anti-tumor effect of the compound of the present invention on mice subcutaneously inoculated with P388 mouse leukemia cells.
Experiment was performed with CDF1 female mice (6 weeks) purchased from NIPPON SLC K.K., which were divided into groups consisting of 5 animals. […]. In this connection, lentinan and picibanil were administered intravenously on days 1, 3, 5, 7 and 9 after implantation, and sizofilan was administered subcutaneously on days 1 through 9. Statistical analysis was performed according to the Mann-Whiteney test.

[2] = test system: mouse splenic lymphocyte; test: In vitro mouse splenic lymphocyte-proliferation-stimulating effect (3H-TdR uptake); assay type: cell-based, mouse (BDF1 female); conditions: 2 days
Description: i) In vitro mouse splenic lymphocyte growth promoting effects of the present compounds
Experiment was performed with BDF1 female mice (6 weeks old) purchased from NIPPON SLC K.K. Spleens were removed from mice, and spleen cells were brayed with slide glasses and hemolized with NH4 Cl. 2×10^6cells/ml of the spleen cells which had been hemolized were suspended in 10% FCS RPMI 1640. The cell suspension (100 μl/well) and a vehicle or sample (10 μl/well) which was prepared so as to have a final level shown in Table 3 were added into wells of a round-bottomed 96 well plate, and cultured under the condition of 5% CO2 at 37° C. for 2 days. 0.5 μCi/well of ^3 H-thymidine (^3 H-TdR) was added. After 6 hours, the cells were harvested, and the amount of ^3 H-TdR uptaken into nucleus was measured by a liquid scintillation counter. The ratio (%) of the uptake of ^3 H-TdR in the sample group to that in the vehicle group was calculated and used as the in vitro mouse splenic lymphocyte-proliferation-stimulating rate.

[3] = test system: mouse bone marrow cells; test: In vitro mouse bone marrow cell-proliferation-promoting effect (3H-TdR uptake); assay type: cell-based, mouse (BDF1 female); conditions: 4 days
Description: In vitro mouse bone marrow cell-proliferation-promoting effect of the present compound
Experiment was performed with BDF1 female mice (6 weeks old) purchased from NIPPON SLC K.K. Bone marrow cells were removed from the femoral bone of mice by the conventional manner, floated on 10% FCS RPMI 1640, layered over Lympholite M, and centrifuged to give a monocyte fraction. 1×10^6 cells/ml of the monocyte fraction was suspended in 10% FCS RPMI 1640. The cell suspension (100 μl/well) and a vehicle or sample (10 μl/well) which was prepared so as to have a final level shown in Table 2 were added into a wells of round-bottomed 96 well plate, and cultured under the condition of 5% CO2 at 37° C. for 4 days. 0.5 μCi/well of ^3 H-thymidine (^3 H-TdR) was added. After 6 hours, the cells were harvested, and the amount of ^3 H-TdR uptaken into nucleus was measured by a liquid scintillation counter. The ratio of the uptake of ^3 H-TdR in the sample group to that in the vehicle group was calculated and used as the activation rate for promoting in vitro mouse bone marrow cell growth.

[4] = test system: mixed lymphocyte culture reaction (spleen cells of C57BL/6 and BALB/C mice); test: Mixed lymphocyte culture reaction (MLR); assay type: cell-based, mouse (C57BL/6 stimulator, BALB/C responder); conditions: 42 hours
Description: ii) Mixed lymphocyte culture reaction (MLR) of the compounds of the present invention
Spleen cells were prepared from C57BL/6 mice and treated with 50 μg/ml of mitomycin C for 30 minutes. The treated cells were used as stimulator cells, and the spleen cells of BALB/C mice as responder cells. 2×10^6 cells/ml of the both spleen cells were suspended in 10% FCS RPMI1640 as a culture medium. The above-described cells (50 μl/well) and a sample (10 μl/well) were added into wells of a round-bottomed 96 well plate, and cultured under the condition of 5% CO2 at 37° C. for 42 hours. 0.5 μCi/well of ^3 H-thymidine (^3 H-TdR) was added. After 8 hours, the cells were harvested, and the amount of uptaken ^3 H-TdR was measured by a liquid scintillation counter to calculate the ratio (%) of the uptake of ^3 H-TdR in the sample group to that in the vehicle group as the MLR activating rate.

[5] = test system: lethally irradiated mice; test: Radioprotective effect: life-span prolongation of lethally irradiated mice; assay type: in vivo, mouse (BDF1 female); conditions: 0.1 mg/kg i.v. days 0, 4, 8, 9 Gy X-ray, groups of 10
Description: Life-span-prolonging effects of the present compounds on lethally irradiated mice.
Experiment was performed with BDF1 female mice (6 weeks old) purchased from NIPPON SLC K.K., which were divided into groups consisting of 10 animals. Mice were irradiated generally with 9 Gy of X-ray with an X-ray generating apparatus, Hitachi, MBR-1520R (radiation day: day 0). Samples at a dose of 0.1 mg/kg were administered into tail vein on days 0, 4 and 8 in order to observe the mortality of the animals for 40 days.
In the table, two experiments are separated by the broken line.

[6] = test system: B16 mouse melanoma cells; test: Tumor growth inhibition in mice subcutaneously inoculated with B16 mouse melanoma cells; assay type: in vivo, mouse (BDF1 female); conditions: 0.1 mg/kg i.v. days 1, 5, 9; maximum during 20 days
Description: ii) Anti-tumor effect of the compound according to the present invention on mice subcutaneously inoculated with B16 mouse melanoma cells.
Experiment was performed with BDF1 female mice (6 weeks) purchased from NIPPON SLC K.K., which were divided into groups consisting of 6 animals. […]. The subcutaneous tumor volumes [(length×width×height)/2] were measured on days 8, 12, 16 and 20 after implantation to determine the tumor growth inhibiting rate (TGIR) of each sample. TGIR was calculated from the following formula: […]
wherein C: tumor volume in the control group, and
T: tumor volume in the sample adminitered groups.
In this connection, Compounds 1-6 and 7-9 were tested in the same time, respectively.

Compound | Survival days ave. ± s. d. [1] [days] | T/C (%) [1] [%] | Uptake of 3H-TdR (% of control), splenic lymphocytes ([2]; 10^0 μg/ml, 2880 min) | Uptake of 3H-TdR (% of control), splenic lymphocytes ([2]; 10^-2 μg/ml, 2880 min) | Uptake of 3H-TdR (% of control), splenic lymphocytes ([2]; 10^-3 μg/ml, 2880 min) | Uptake of 3H-TdR (% of control), bone marrow cells ([3]; 10^-1 μg/ml, 5760 min) | Uptake of 3H-TdR (% of control), bone marrow cells ([3]; 10^-2 μg/ml, 5760 min) | MLR activating rate (%) ([4]; 1 × 10^0 μg/ml, 2520 min) | MLR activating rate (%) ([4]; 1 × 10^-1 μg/ml, 2520 min) | Number of surviving mice ([5]; day 10) [mice] | Number of surviving mice ([5]; day 15, 0.1 mg/kg) [mice] | Number of surviving mice ([5]; day 20, 0.1 mg/kg) [mice] | Number of surviving mice ([5]; day 25, 0.1 mg/kg) [mice] | Number of surviving mice ([5]; day 30, 0.1 mg/kg) [mice] | Number of surviving mice ([5]; day 35, 0.1 mg/kg) [mice] | Number of surviving mice ([5]; day 40, 0.1 mg/kg) [mice] | Maximum tumor growth inhibiting rate, TGIR (%) [6] [%] | other results
CCCCCCCCCCCCCCCCCCCCCC[C@@H](O)C(=O)N[C@@H](CO[C@H]1O[C@H](CO)[C@H](O)[C@H](O[C@H]2O[C@H](CO)[C@H](O)[C@H](O)[C@H]2NC(C)=O)[C@H]1O[C@H]1O[C@H](CO)[C@@H](O)[C@H](O)[C@H]1O)[C@H](O)[C@H](O)CCCCCCCCCCCC(C)C [Compound 3, O-(N-acetyl-2-amino-2-deoxy-α-D-galactopyranosyl)-(1→3)-O-[α-D-glucopyranosyl-(1→2)]-O-α-D-galactopyranosyl-(1→1)-(2S,3S,4R)-2-amino-N-[(R)-2-hydroxytetracosanoyl]-16-methyl-1,3,4-heptadecanetriol] | 15.0 ± 0 | 117 | 815 % of control | 397 % of control | 258 % of control | 314 % of control | 138 % of control | 210 | 138 | 10 | 6 | 5 | 5 | 5 | 5 | 5 | 66.8 | Uptake of 3H-TdR (% of control), splenic lymphocytes ([2]; 10^-1 μg/ml, 2880 min): 704 % of control
O-(N-acetyl-2-amino-2-deoxy-α-D-galactopyranosyl)-(1→3)-O-[α-D-glucopyranosyl-(1→2)]-O-α-D-galactopyranosyl-(1→1)-(2S,3S,4R)-2-amino-N-[(R)-2-hydroxytetracosanoyl]-16-methyl-1,3,4-octadecanetriol [Compound 9] | 16.4 ± 1.8 | 128 | – | – | – | – | – | – | – | 10 | – | – | – | – | – | – | 74.8 | Uptake of 3H-TdR (% of control), splenic lymphocytes ([2]; 10^0 μg/ml): 902 % of control; Uptake of 3H-TdR (% of control), splenic lymphocytes ([2]; 10^-1 μg/ml): 924 % of control; Uptake of 3H-TdR (% of control), splenic lymphocytes ([2]; 10^-3 μg/ml): 513 % of control; Uptake of 3H-TdR (% of control), bone marrow cells ([3]; 10^-1 μg/ml): 286 % of control; Uptake of 3H-TdR (% of control), bone marrow cells ([3]; 10^-2 μg/ml): 91 % of control; MLR activating rate (%) ([4]; 1 × 10^0 μg/ml): 247%; MLR activating rate (%) ([4]; 1 × 10^-1 μg/ml): 205%; Number of surviving mice ([5]; day 15): 8 mice; Number of surviving mice ([5]; day 20): 5 mice; Number of surviving mice ([5]; day 25): 3 mice; Number of surviving mice ([5]; day 30): 3 mice; Number of surviving mice ([5]; day 35): 3 mice; Number of surviving mice ([5]; day 40): 3 mice
CCCCCCCCCCCCCCCCCCCCCC[C@@H](O)C(=O)N[C@@H](CO[C@H]1O[C@H](CO)[C@H](O)[C@H](O[C@H]2O[C@H](CO)[C@H](O)[C@H](O)[C@H]2NC(C)=O)[C@H]1O[C@H]1O[C@H](CO)[C@@H](O)[C@H](O)[C@H]1O)[C@H](O)[C@H](O)CCCCCCCCCCCC(C)C [Compound 7, O-(N-acetyl-2-amino-2-deoxy-α-D-galactopyranosyl)-(1→3)-O-[α-D-glucopyranosyl-(1→2)]-O-α-D-galactopyranosyl-(1→1)-(2S,3S,4R)-2-amino-N-[(R)-2-hydroxytetracosanoyl]-16-methyl-1,3,4-heptadecanetriol] | 15.8 ± 0.9 | 123 | 927 % of control | 705 % of control | 593 % of control | 451 % of control | 478 % of control | 234 | 195 | 10 | 8 | 6 | 3 | 3 | 3 | 3 | 78.1 | –
